Series [1] deals with human WiDr colon carcinoma. In words: Human WiDr colon carcinoma tumor growth in nude mice. The format is in vivo, mouse. Here is the method:
The following experiment was carried out to check potential drug interaction between IL-6 and the chemotherapeutic agent in vivo.
Balb/c nude mice are used since have proven to be susceptible host systems for the growth of human WiDr colon carcinoma tumor cells. WiDr cells were provided by the bank of the National Cancer Research Institute Genova-Italy. Cell species: human, tissue: colon, tumor: colon adenocarcinoma, accession number: ICLC HTL00003.
Tumor size was recorded twice a week for 4 weeks starting 4 days after cell inoculation.
Each Balb/c nude mice (about 20-25 g body weight) was inoculated subcutaneously (s.c.) with 10^7+5% WiDr cells/mouse (0.2 mL/mouse of cell suspension) on day 1.
A group administered with 0.02% mouse albumin (Sigma) in 40 mM phosphate buffer at pH=7.0, s.c., a group administered with 3.5 mg/kg Cis-platinum, i.p. (in 0.9% NaCl sterile solution for injection), three groups of rats each treated with IL-6 (in 0.02% mouse albumin in 40 mM phosphate buffer at pH=7.0), s.c. at 3, 10 or 30 μg/kg and three groups of rats treated with IL-6 either at 3, 10 or 30 μg/kg IL-6, s.c. in combination with cis-platinum 3.5 mg/kg, i.p.
IL-6 at […] was given s.c. daily (10 mL/kg) from day 4 up to day 18. […] Tumor size was recorded twice a week for 4 weeks starting 4 days after cell inoculation. […]

Series [2] concerns cisplatin induced neuropathy. The format is in vivo, rat. Here is the method:
The drug was diluted in 0.9% sterile aqueous solution of sodium chloride.
4-MC was diluted in 0.9% sterile aqueous solution of sodium chloride and injected daily via IP route from day 23 to the end of the experiment.
Electrophysiological tests described in Example 17, were carried out in parallel to the behavioral tests (described in the preceding example) in cisplatin-established neuropathy model. The objective was to assess the therapeutic effect of IL-6 in cisplatin-induced loss of fiber/nerve function.
Electrophysiological recordings were performed using a Neuromatic 2000M electromyograph (EMG) (Dantec, Les Ulis, France). Rats were anaesthetized by IP injection of 60 mg/kg ketamine chlorhydrate (Imalgene 500®, Rhône Merieux, Lyon, France). The normal body temperature was maintained around […] with a heating lamp and verified using a contact thermometer (Quick, Bioblock Scientific, Illkirch, France) placed on the tail surface.
Sensitive nerve conduction velocity (SNCV) was also recorded. The tail skin electrodes were placed as follows: a reference needle inserted at the base of the tail and an anode needle placed 30 mm away from the reference needle toward the extremity of the tail. A ground needle electrode was inserted between the anode and reference needles. The caudal nerve was stimulated with a series of 20 pulses (for 0.2 ms) at an intensity of 12.8 mA. The velocity was expressed in m/s.
H-wave reflex was recorded in the hind footpad muscle after stimulation of the sciatic nerve. A reference electrode and a ground needle were placed on the lower back of the rat. The sciatic nerve was stimulated with a single 0.2 ms pulse at supramaximal intensity. The amplitude (mV) of H wave and the proportion of animal lacking H wave response were the parameters studied.

Series [3] deals with lung (SK-MES1) tumor cell line. In words: Cell survival by acid phosphatase activity assay, SK-MES1. The format is cell-based, human. Here is the method: (§1) The human lung (SK-MES1) and breast (MCF7) tumor cell lines were obtained from ATCC. The cell lines were maintained in Dulbecco's MEM medium (Gibco; Invitrogen, Cergy-Pontoise, France, ref. 41965039) supplemented with 1% antibiotic/antimicotic mixture solution (Gibco, ref. 15240062), and 10% heat-inactivated foetal bovine serum (Gibco, ref. F7524, batch 92K3387). The cells were amplified in Nunc tissue culture flasks (80 cm2) in a humidified incubator at 37° C. with 5% CO2 in 95% air. Cultures were sub-cultured twice a week.
(§2) The enzymatic activity has been proven to be proportional to the number of living cells (Ueda et al.; 1994).
(§3) Three days after the last replication, tumor cells were seeded in 96 well-plates (TPP, VWR International, Fontenay-sous-bois, France) at a density of 1,500 cells (MCF7 line) or 3,000 cells (SK-MES1 line) per well, in a total volume of 100 μl/well and incubated overnight in a humidified incubator at 37° C. with 5% CO2 in 95% air. […] IL-6 (in buffer solution at 1.8 mg/ml, PH: 7) was immediately added at concentrations of 0, 3, 12, 50 or 200 ng/ml.
(§4) Four days after the initiation of the intoxication, acid phosphatase activity (Example 21) in each cell culture was assessed.
(§5) After removal of the culture medium, cells were rinsed with phosphate-buffered saline (PBS, Gibco, ref. 14190-094) and further incubated for 90 min at 37° C. in 100 μl of buffer containing 0.1 mol/l sodium acetate (pH 5.5), 0.1% Triton X100 (Sigma, ref. T9284) and 10 mmol/l p-nitrophenyl phosphate (Sigma, ref. N9389). Reaction was stopped by addition of 10 μl of 1 mol/l sodium hydroxide aqueous solution (Laboratoire de Produit Chimiques de la Robertsau, Strasbourg, France; ref. 28.252.293). Absorbance of the colored solution was measured at 405 nm in a microplate reader (Labsystems Multiskan Bichromatic, EST-LAB, Strasbourg, France).
(§6) The results were expressed as percentage of optical density of the control cell cultures. The heights of the columns represent mean±SEM of percentages of 5-6 wells from two independent cultures.

For series [4], the system named is breast (MCF7) tumor cell line. In words: Cell survival by acid phosphatase activity assay, MCF7. The format is cell-based, human. Here is the method:
as §1, §2, §3, §4, §5, §6

Series [5] concerns cisplatin induced neuropathy. In words: Hot plate test in cisplatin-treated rats, co-administration. The format is in vivo, rat. Here is the method:
The rat was placed inside a glass cylinder of 17 cm height and 21 cm diameter on a heating-plate maintained at 52° C. (Medite OTS 40, Microm, Francheville, Rhône, France). The animal behavior was observed, particularly the licking of a foot and the adjusted leap. The latency before licking a foot or before jumping to escape the heat (adjusted leap) was recorded. The time needed to feel the thermal pain is related to the thermal sensitivity and tends to increase when thermal sensitivity is altered.
(Hot-plate and tail-flick tests time the reaction to a heat stimulus.)

Series [6] has as its system cisplatin induced neuropathy. In words: Hot plate test, therapeutic treatment of established cisplatin neuropathy. The format is in vivo, rat.
Setting [7] is: IL-6 3, 12, 50 or 200 ng/ml, p>0.05.
[8] abbreviates: cisplatin (2.5 μM), carboplatin (25 μM), 4 days.

On to “IL-6: Recombinant human IL-6 produced in genetically engineered Chinese Hamster Ovary (CHO) cells”, for which the WiDr tumor growth entry in series [1] (IL-6 alone 3, 10 and 30 μg/kg s.c. daily day 4 to 18) is listed as “did not significantly affect the growth of the tumor”. Moreover, in series [2] (IL-6 3 μg/kg, after 1 week of treatment, p≦0.01), the “SNCV in cisplatin-treated animals” value is listed as “improved the SNCV”. In addition, the “loss of H wave amplitude” value in series [2] (IL-6 3 and 10 μg/kg SC daily from day 23, p≦0.05) was “reversed the loss of H wave amplitude”. The “H wave amplitude loss recovered” value in series [2] (IL-6, 1 week after initiation of treatment) is reported as “about 50%”. In series [2] (IL-6, 2 weeks of treatment), the “H wave amplitude recovery” value is “full recovery”. Further, the “curing/ameliorating loss of fiber/nerve function compared with 4-MC” value in series [2] (IL-6 vs 4-MC) is on record as “more efficient than 4-MC”. Besides, in series [3] (setting [7]), the “survival of vincristine or cisplatine treated cells in the presence of IL-6” value is “did not change significantly”. In series [3] (IL-6 3, 12, 50 or 200 ng/ml, significant), the “survival of carboplatin-intoxicated cells in the presence of IL-6” value is “decrease of survival”. Moreover, the “effect of taxol on cell survival with IL-6” value in series [3] (IL-6 3-200 ng/ml, p>0.05) is reported as “did not change the effect of taxol”; in series [4] (IL-6 3-200 ng/ml, p>0.05), “did not change the effect of taxol”. In addition, the “survival of cells intoxicated with carboplatin and taxol in the presence of IL-6” value in series [3] (p>0.05) and in series [4] (p>0.05) was “remained unchanged” throughout. Moreover, in series [4] (setting [7]), the “survival of vincristine or cisplatine or carboplatin treated cells in the presence of IL-6” value is “did not change significantly”. Besides, the “delay of the first reaction to heat by cisplatin” value in series [5] (IL-6 10 μg/kg SC daily) is given as “fully prevented”; in series [5] (IL-6 0.3, 1, 3, 10 μg/kg SC daily, p≦0.05), “prevented/reduced delay of the first reaction to heat”. For the same compound, the “time of the first reaction to heat, significance” value in series [6] (IL-6 10 μg/kg, 2 weeks after IL-6 treatment, p≦0.05) is listed as “Significant results”. The “time of the first reaction to heat” value in series [6] (IL-6 3 and 10 μg/kg SC daily from day 23, two weeks after initiation, p≦0.05) is reported as “overall reduction in the time of the first reaction”.

Turning to `N.N.[Cl][Pt][Cl]` [cisplatin, Cis-dichlorodiamine platinum], the WiDr tumor growth entry in series [1] (cisplatin 3.5 mg/kg i.p. days 4, 8, 12, 18, significant on days 18, 22, 25) is “reduce tumor growth”. Moreover, the “SNCV versus untreated control” value in series [2] (rat, in vivo) is listed as “significantly slower”. The “loss in H wave signal amplitude” value in series [2] (rat, in vivo) was “about 70%”. Moreover, the “decrease in cell survival versus control” value in series [3] (setting [8]) and in series [4] (setting [8]) was “about 50%” each time. In addition, the “hot plate first reaction to heat versus control” value in series [5] (cisplatin alone, from 3 weeks) is given as “significant delayed first reaction to heat”; in series [6] (cisplatin alone, during and 3 weeks post-cisplatin), “significant delayed first reaction to heat”.

Values taken from patent US7951359B2, “Compositions and methods for therapy or prevention of chemotherapy-induced neuropathy” (Merck Serono SA, priority 2004, dated 2011).
